Where “and” joins values, the source holds several entries; their conditions need not be identical. Equal values may be shown once.
Tested on: advanced solid tumors
Experiment: antitumor activity by RECIST 1.1
Assay type: in vivo, human
Text: Patients were continuously evaluated for adverse events throughout the study using the Common Terminology Criteria of Adverse Events (CTCAE v. 5). The patients underwent a clinical history and physical examination, an ECOG PS, a complete blood count (CBCs), chemistry, coagulation studies, urinalysis, a serum pregnancy test (as applicable), a triplicate ECG, an ophthalmology examination, and baseline tumor assessment at screening. During cycle 1, weekly history and physical examination, CBC, chemistry, coagulation parameters, urinalysis, and triplicate ECGs were performed; in subsequent cycles, weekly labs were limited to a CBC. Repeat ophthalmology examinations were performed at cycle 3, day 1, and at the end of treatment. Repeat tumor assessment was performed every 2 cycles (6 weeks) in accordance with RECIST 1.1. Descriptive statistics were used for baseline characteristics, safety assessments, pharmacokinetic variables, exploratory assessments, and efficacy analysis, including the duration of response and time to progression. Tables were used to summarize the data across the cohort of patients and various dosing groups. Geometric means were used to calculate plasma concentration-time profiles. Fold changes from baseline were used to calculate acetylation.

CC(C)[C@H](N)C(=O)SCC/C=C/[C@@H]1CC(=O)NCc2nc(cs2)C(=O)NC(C)(C)C(=O)N[C@@H](C(C)C)C(=O)O1 [OKI-179, Bocodepsin]
partial or complete response (RECIST 1.1): No partial or complete response | stable disease as the best response (heavily pretreated patient population): 39% | patients with stable disease for > 5 months (in vivo): Six | time in the study with stable disease (two patients with platinum-resistant serous ovarian cancer, one value each): 7.5 months and 14.7 months
